US8501816B2, “Antitussive compositions comprising memantine” (Cerecor, Inc., priority 2010, dated 2013)
Entries after “also recorded” stand apart in the source; their conditions may differ. Marks after values point to notes of the source that are not given here.

How the values were obtained:
[1] = Pharmacokinetics of memantine with sodium hydroxide, menthol and NH4Cl in male beagle dogs (Example 3); type: in vivo, beagle dog; settings: MMT 0.4 mg/kg; for Cmax/Dose: Route Oral; for AUC(0-inf) / AUC(0-t) / Cmax / Tmax / half-life: male, beagle, dog, plasma, po, 0.4 mg/kg
[2] = system: histamine neuron activity; settings: cited from earlier work
[3] = system: H3-receptor; settings: hypothalamus, after 5 mg/kg twice daily for 5 days; cited from earlier work
[4] = system: native NMDA receptors; settings: in vitro; cited from earlier work
[5] = system: recombinant human histamine receptors; settings: in vitro; cited from earlier work
[6] = system: citric acid induced cough; experiment: Citric acid induced cough in conscious guinea pigs; settings: for ≧15 Cumulative coughs/total number of guinea pigs: 1 hour pre-citric acid challenge; for Cumulative coughs evoked by citric acid, 0.1M Citric Acid / Cumulative coughs evoked by citric acid, 0.3M Citric Acid: MMT 10 mg/kg intraperitoneal
Protocol: Male Hartley guinea pigs (200-700 g) were studied and all experiments were first approved by the institutional Animal Care and Use Committee.
Animals were placed in a transparent chamber (Buxco Research Systems, Wilmington, N.C.) with a continuous flow of air and exposed to increasing concentrations of citric acid (0.01 M-0.3 M) is delivered by an ultrasonic nebulizer generating aerosol particles of 3-6 μm diameter. Coughs were counted during a 5 minute nebulization period and over the subsequent 5 minutes with the assistance of sound and pressure monitoring from the chamber. Respiratory rate and tidal volume were monitored throughout via a calibrated pressure transducer (Emka Technologies, Falls Church, Va.).
Each of these drugs was administered orally in half-log increments (e.g. 3 mg/kg, 10 mg/kg, 30 mg/kg) in an unpaired experimental design (each animal received only 1 dose of drug). The drugs were administered 60 minutes prior to citric acid challenge, which consisted of 5 minute challenges with aerosols of increasing concentrations of citric acid (0.01-0.3M), with 5 minute intervals in between escalating doses of the tussive stimulus.

[7] = 3.3 mg/ml sodium hydroxide + 5 mg/ml menthol
[8] = 3.3 mg/ml sodium hydroxide + 5 mg/ml menthol + 20 mg/kg NH4Cl
[9] = 3.3 mg/ml sodium hydroxide + 5 mg/ml menthol + 30 mg/kg NH4Cl

CC12CC3CC(C)(C1)CC(N)(C3)C2 [Memantine, 3,5-dimethyltricyclo[3.3.1.1^3,7]decan-1-amine]
Cmax/Dose [1, 7]: 18.16
Cmax/Dose [1, 8]: 26.03
Cmax/Dose [1, 9]: 9.18
Cmax/Dose ([1]; Control): 7.91
AUC(0-inf) [1, 7]: 126 ng·h/mL
AUC(0-t) [1, 7]: 113 ng·h/mL
Cmax [1, 7]: 77 ng/mL
Tmax [1, 7]: 12 min
half-life [1, 7]: 303 min
AUC(0-inf) [1, 8]: 143 ng·h/mL
AUC(0-t) [1, 8]: 134 ng·h/mL
Cmax [1, 8]: 126 ng/mL
Tmax [1, 8]: 9 min
half-life [1, 8]: 276 min
AUC(0-inf) [1, 9]: 125 ng·h/mL
AUC(0-t) [1, 9]: 103 ng·h/mL
Cmax [1, 9]: 43 ng/mL
Tmax [1, 9]: 15 min
half-life [1, 9]: 260 min
AUC(0-inf) ([1]; Control): 132 ng·h/mL
AUC(0-t) ([1]; Control): 120 ng·h/mL
Cmax ([1]; Control): 34.5 ng/mL
Tmax ([1]; Control): 45 min
half-life ([1]; Control): 431 min
ED50 of t-MeHA increase ([2]; acute administration): 0.3 ± 0.1 mg/kg
increase of tele-methylhistamine (t-MeHA) levels in the brain ([2]; acute administration): 60%
t-MeHA levels enhanced by ([2]; two days after 5 mg/kg twice daily for 5 days): 50±7%
density of H3-receptor binding sites increased by [3]: 141±24%
potency of antagonism [4]: micromolar potency
effect at receptors [5]: no effect
≧15 Cumulative coughs/total number of guinea pigs ([6]; 0.01 mg/kg po): 2/5
≧15 Cumulative coughs/total number of guinea pigs ([6]; 0.1 mg/kg po): 1/5
Cumulative numbers of cough, median, citric acid 0.01M ([6]; 1 mg/kg intraperitoneally): 0.0
Cumulative numbers of cough, median, citric acid 0.1M ([6]; 1 mg/kg intraperitoneally): 5.0
Cumulative numbers of cough, median, citric acid 0.3M ([6]; 1 mg/kg intraperitoneally): 14.0
≧15 Cumulative coughs/total number of guinea pigs ([6]; 1 mg/kg po): 2/7
Cumulative numbers of cough, median, citric acid 0.01M ([6]; 3 mg/kg intraperitoneally): 0.0
Cumulative numbers of cough, median, citric acid 0.1M ([6]; 3 mg/kg intraperitoneally): 3.0
Cumulative numbers of cough, median, citric acid 0.3M ([6]; 3 mg/kg intraperitoneally): 24.5
≧15 Cumulative coughs/total number of guinea pigs ([6]; 3 mg/kg po): 0/5
Cumulative numbers of cough, median, citric acid 0.01M ([6]; 10 mg/kg intraperitoneally): 0.0
Cumulative numbers of cough, median, citric acid 0.1M ([6]; 10 mg/kg intraperitoneally): 0.0
Cumulative numbers of cough, median, citric acid 0.3M ([6]; 10 mg/kg intraperitoneally): 1.5*
Effect on cumulative number of coughs evoked by citric acid (0.01-0.3M) compared to controls ([6]; 10 mg/kg intraperitoneally): significantly reduced the cumulative number of coughs; also recorded: markedly reduced the number of cumulative coughs
≧15 Cumulative coughs/total number of guinea pigs ([6]; 10 mg/kg po): 0/7
Cumulative numbers of cough, median, citric acid 0.01M ([6]; 30 mg/kg intraperitoneally): 0.0
Cumulative numbers of cough, median, citric acid 0.1M ([6]; 30 mg/kg intraperitoneally): 0.0*
Cumulative numbers of cough, median, citric acid 0.3M ([6]; 30 mg/kg intraperitoneally): 1.5*
Effect on cumulative number of coughs evoked by citric acid (0.01-0.3M) compared to controls ([6]; 30 mg/kg intraperitoneally): significantly reduced the cumulative number of coughs; also recorded: similarly reduced cough responses
≧15 Cumulative coughs/total number of guinea pigs ([6]; 30 mg/kg po): 0/4
Effect on cumulative coughs evoked by citric acid over vehicle ([6]; 1 and 3 mg/kg): no significant effect
Cumulative coughs evoked by citric acid, 0.1M Citric Acid ([6]; 0.5 hr pre-challenge): 2 ± 2
Cumulative coughs evoked by citric acid, 0.3M Citric Acid ([6]; 0.5 hr pre-challenge): 5 ± 3
Cumulative coughs evoked by citric acid, 0.1M Citric Acid ([6]; 1 hr pre-challenge): 1 ± 1
Cumulative coughs evoked by citric acid, 0.3M Citric Acid ([6]; 1 hr pre-challenge): 7 ± 3
Cumulative coughs evoked by citric acid, 0.1M Citric Acid ([6]; 2 hr pre-challenge): 0 ± 0
Cumulative coughs evoked by citric acid, 0.3M Citric Acid ([6]; 2 hr pre-challenge): 7 ± 4
Cumulative coughs evoked by citric acid, 0.1M Citric Acid ([6]; 4 hr pre-challenge): 6 ± 5
Cumulative coughs evoked by citric acid, 0.3M Citric Acid ([6]; 4 hr pre-challenge): 15 ± 6
Levels of cough, oral compared to parenteral administration ([6]; doses of 1 mg/kg or more (FIG. 8)): substantially reduced levels of cough compared to parenterally administered memantine
time to the first cough during the citric acid challenge ([6]; memantine 10 mg/kg vs vehicle, p=0.007): shorter for vehicle than memantine 10 mg/kg
Effect of single agent on citric acid (0.01-0.3M) induced cough ([6]; oral, 60 minutes prior, memantine 3, guaifenesin 100, diphenhydramine 10, benzonatate 30, ambroxol 100 mg/kg): failed to inhibit cough
Percentage of animals coughing ≧15 times, effect relative to controls ([6]; orally, doses around 0.1-1 mg/kg (FIG. 7)): reduces cough relative to controls
